Values belong to the compound of their own block, whether it stands above or below them. The source made the active and inactive calls. No cut-off for these calls is given here.
Experiments:
HeLa [1] = assay: Induction of EGFP fused Htt Q145 mutant exon 1 (unknown origin) degradation expressed in human HeLa cells assessed as HSP70/CHIP recruitment based proteosome mediated decrease in aggregate foci at 10 uM incubated for 24 hrs by Hoechst33342 staining based fluorescence microscopic analysis; assay type: cell-based; design: scale not given: the % may be the effect or the level left
[2] = Efflux ratio of apparent permeability across basolateral to apical side over apical to basolateral side in human Caco-2 cells at 10 uM; assay type: ADME, cell-based; conditions: for efflux ratio at 10 µM: Caco-2
[3] = Apparent permeability across basolateral to apical side in human Caco-2 cells at 10 uM; assay type: ADME, cell-based; conditions: for Papp B→A at 10 µM: Caco-2
[4] = Apparent permeability across apical to basolateral side in human Caco-2 cells at 10 uM; assay type: ADME, cell-based; conditions: for Papp A→B at 10 µM: Caco-2
HeLa [5] = assay: Induction of EGFP fused Htt Q145 mutant exon 1 (unknown origin) degradation expressed in human HeLa cells assessed as HSP70/CHIP recruitment based proteosome mediated mHtt exon 1-Q145 degradation at 5 uM measured after 24 hrs by Western blot analysis; assay type: cell-based
HeLa [6] = assay: Induction of EGFP fused Htt Q145 mutant exon 1 (unknown origin) degradation expressed in human HeLa cells assessed as HSP70/CHIP recruitment based proteosome mediated mHtt exon 1-Q145 degradation at 10 uM measured after 24 hrs by Western blot analysis in the presence of bortezomib; assay type: cell-based
HeLa [7] = assay: Induction of EGFP fused Htt Q145 mutant exon 1 (unknown origin) degradation expressed in human HeLa cells assessed as HSP70/CHIP recruitment based proteosome mediated mHtt exon 1-Q145 degradation at 10 uM preincubated with geldanamycin for 6 hrs and measured after 24 hrs by Western blot analysis; assay type: cell-based
HeLa [8] = assay: Induction of EGFP fused Htt Q23 mutant exon 1 (unknown origin) degradation expressed in human HeLa cells assessed as HSP70/CHIP recruitment based proteosome mediated mHtt exon 1-Q23 degradation at 1 to 10 uM measured after 48 hrs by Western blot analysis; assay type: cell-based; conditions: dose 1-10 µM
HeLa [9] = assay: Induction of EGFP fused Htt Q145 mutant exon 1 (unknown origin) degradation expressed in human HeLa cells assessed as HSP70/CHIP recruitment based proteosome mediated mHtt exon 1-Q145 degradation at 10 uM measured after 24 to 48 hrs by Western blot analysis; assay type: cell-based; conditions: time 24-48 hrs
[10] = system: Huntingtin (Homo sapiens), P42858 [UNDEFINED MUTATION]; assay: Induction of mutant Htt (unknown origin) degradation expressed in human fibroblasts cells assessed as HSP70/CHIP recruitment based proteosome mediated mHtt degradation by western blot analysis; assay type: cell-based; conditions: Fibroblast
Chain of Huntingtin (Homo sapiens), P42858 [UNDEFINED MUTATION] (P42858 whole entry, looked up, change not shown, the tested form may be a part): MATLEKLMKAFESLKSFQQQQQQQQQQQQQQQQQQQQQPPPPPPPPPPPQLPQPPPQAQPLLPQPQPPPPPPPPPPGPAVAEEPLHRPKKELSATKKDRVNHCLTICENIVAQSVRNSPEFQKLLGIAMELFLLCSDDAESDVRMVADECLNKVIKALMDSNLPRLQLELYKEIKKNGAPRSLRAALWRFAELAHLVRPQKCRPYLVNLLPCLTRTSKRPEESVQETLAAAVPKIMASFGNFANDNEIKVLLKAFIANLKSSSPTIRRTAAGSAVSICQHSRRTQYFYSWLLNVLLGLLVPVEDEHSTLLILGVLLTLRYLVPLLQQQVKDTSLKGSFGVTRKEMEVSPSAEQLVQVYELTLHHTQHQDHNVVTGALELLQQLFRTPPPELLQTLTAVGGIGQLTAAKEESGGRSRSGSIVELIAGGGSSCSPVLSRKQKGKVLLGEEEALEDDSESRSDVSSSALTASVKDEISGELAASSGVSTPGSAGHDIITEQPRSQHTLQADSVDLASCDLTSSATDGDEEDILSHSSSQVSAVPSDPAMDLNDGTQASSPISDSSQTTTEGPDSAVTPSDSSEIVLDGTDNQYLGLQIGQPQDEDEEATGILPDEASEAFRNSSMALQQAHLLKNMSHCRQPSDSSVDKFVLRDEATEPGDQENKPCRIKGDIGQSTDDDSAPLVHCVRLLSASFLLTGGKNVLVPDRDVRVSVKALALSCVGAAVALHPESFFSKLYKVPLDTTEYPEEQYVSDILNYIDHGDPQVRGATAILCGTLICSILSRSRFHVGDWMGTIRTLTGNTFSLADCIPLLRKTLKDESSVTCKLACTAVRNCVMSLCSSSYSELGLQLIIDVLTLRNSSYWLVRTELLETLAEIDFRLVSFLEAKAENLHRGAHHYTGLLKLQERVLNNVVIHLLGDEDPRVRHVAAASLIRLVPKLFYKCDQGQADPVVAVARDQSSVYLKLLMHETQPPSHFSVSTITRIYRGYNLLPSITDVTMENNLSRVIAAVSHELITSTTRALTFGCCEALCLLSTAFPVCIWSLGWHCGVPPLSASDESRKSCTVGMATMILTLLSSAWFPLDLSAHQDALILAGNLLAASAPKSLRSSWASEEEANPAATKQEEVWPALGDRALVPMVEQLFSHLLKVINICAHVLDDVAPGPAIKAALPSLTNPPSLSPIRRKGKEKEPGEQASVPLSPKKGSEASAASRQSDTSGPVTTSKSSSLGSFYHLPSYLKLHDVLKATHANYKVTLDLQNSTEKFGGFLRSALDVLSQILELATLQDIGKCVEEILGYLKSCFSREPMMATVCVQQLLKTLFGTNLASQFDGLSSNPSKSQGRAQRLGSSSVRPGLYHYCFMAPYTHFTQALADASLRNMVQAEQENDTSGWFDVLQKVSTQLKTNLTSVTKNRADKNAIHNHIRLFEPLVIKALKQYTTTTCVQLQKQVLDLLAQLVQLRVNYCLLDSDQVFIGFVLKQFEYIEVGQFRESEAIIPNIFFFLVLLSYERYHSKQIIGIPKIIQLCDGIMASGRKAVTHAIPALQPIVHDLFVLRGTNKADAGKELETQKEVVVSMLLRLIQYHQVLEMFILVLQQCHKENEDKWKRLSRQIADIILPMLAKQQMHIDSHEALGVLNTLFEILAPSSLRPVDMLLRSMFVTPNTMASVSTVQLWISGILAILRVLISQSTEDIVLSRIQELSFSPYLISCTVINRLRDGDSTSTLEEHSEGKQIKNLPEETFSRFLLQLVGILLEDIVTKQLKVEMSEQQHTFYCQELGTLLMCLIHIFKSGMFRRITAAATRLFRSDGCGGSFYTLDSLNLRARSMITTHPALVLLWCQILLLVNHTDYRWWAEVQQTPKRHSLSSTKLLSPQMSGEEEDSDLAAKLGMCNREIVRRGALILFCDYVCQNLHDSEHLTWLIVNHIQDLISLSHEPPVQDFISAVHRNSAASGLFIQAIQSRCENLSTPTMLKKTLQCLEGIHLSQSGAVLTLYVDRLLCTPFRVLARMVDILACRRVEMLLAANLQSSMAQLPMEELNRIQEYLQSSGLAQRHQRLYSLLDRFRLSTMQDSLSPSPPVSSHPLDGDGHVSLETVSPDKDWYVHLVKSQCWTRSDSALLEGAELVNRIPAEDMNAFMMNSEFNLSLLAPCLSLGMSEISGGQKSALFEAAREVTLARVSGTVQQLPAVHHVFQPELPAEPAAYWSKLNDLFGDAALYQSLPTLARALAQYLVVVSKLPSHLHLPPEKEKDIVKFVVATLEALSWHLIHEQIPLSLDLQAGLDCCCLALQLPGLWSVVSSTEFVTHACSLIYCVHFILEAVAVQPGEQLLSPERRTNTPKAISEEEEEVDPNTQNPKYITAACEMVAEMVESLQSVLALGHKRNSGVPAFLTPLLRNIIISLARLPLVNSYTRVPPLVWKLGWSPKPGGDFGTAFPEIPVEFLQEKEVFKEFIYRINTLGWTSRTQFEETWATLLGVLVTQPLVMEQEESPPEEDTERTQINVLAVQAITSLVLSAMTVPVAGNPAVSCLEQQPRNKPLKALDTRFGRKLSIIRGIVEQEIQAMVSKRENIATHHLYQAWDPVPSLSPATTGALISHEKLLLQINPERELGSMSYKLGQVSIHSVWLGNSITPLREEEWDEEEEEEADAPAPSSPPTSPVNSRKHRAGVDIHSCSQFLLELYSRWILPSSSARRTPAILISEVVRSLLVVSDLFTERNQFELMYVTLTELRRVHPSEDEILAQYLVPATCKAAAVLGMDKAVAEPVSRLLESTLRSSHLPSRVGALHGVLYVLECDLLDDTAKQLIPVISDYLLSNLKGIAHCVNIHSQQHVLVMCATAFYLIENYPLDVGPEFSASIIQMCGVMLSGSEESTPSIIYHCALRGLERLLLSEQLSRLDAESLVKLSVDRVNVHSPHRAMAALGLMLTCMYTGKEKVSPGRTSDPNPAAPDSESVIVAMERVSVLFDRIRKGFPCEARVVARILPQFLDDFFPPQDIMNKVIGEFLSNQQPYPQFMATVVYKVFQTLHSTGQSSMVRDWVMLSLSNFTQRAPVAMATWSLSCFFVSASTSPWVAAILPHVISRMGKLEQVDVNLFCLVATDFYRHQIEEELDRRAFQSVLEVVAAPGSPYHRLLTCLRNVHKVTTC

HeLa [11] = assay: Induction of EGFP fused Htt Q145 mutant exon 1 (unknown origin) degradation expressed in human HeLa cells assessed as HSP70/CHIP recruitment based proteosome mediated mHtt exon 1-Q145 degradation at higher concentration measured after 24 hrs by Western blot analysis; assay type: cell-based
HeLa [12] = assay: Induction of EGFP fused Htt Q145 mutant exon 1 (unknown origin) degradation expressed in human HeLa cells assessed as HSP70/CHIP recruitment based proteosome mediated mHtt exon 1-Q145 degradation at 10 uM measured after 24 hrs by Western blot analysis; assay type: cell-based
[13] = Ratio of drug concentration in brain to plasma in C57BL/6J mouse at 0.1 to 0.7 mg/kg, iv measured after 4 hrs; assay type: ADME, organism-based; conditions: brain and plasma, dose 0.1-0.7 mg/kg

- efflux ratio at 10 µM [2]: 1.2
- Papp B→A at 10 µM [3]: 0.118 ×10⁻⁶ cm/s
- Papp A→B at 10 µM [4]: 0.098 ×10⁻⁶ cm/s
- Activity [10]: Dose-Dependent Effect
SMILES: CN(C)c1ccc(/N=N/c2nc3ccc(OCCOCCOCCOCCOC45CC6CC(CC(C6)C4)C5)cc3s2)cc1
- Activity (HeLa [1]): 60%
- Activity (HeLa [5]): inactive
- Activity (HeLa [6]): inactive
- Activity (HeLa [7]): Active
- Activity (HeLa [8]): inactive
- Activity (HeLa [9]): Active

- Ratio ([2]; caco-2, 10 µM): 0.241
- Papp ([3]; caco-2, 10 µM): 0.241 10^-6 cm/s
- Papp ([4]; caco-2, 10 µM): 2.46 10^-6 cm/s
SMILES: CCCCCC(CCCCC)OCCOCCOCCOCCOc1ccc2nc(/N=N/c3ccc(N(C)C)cc3)sc2c1
- Activity (HeLa [11]): Active

SMILES: OCCOCCOCCOCCOC12CC3CC(CC(C3)C1)C2
- Activity (HeLa [12]): inactive

- efflux ratio at 10 µM [2]: 0.19
- Papp B→A at 10 µM [3]: 0.196 ×10⁻⁶ cm/s
- Papp A→B at 10 µM [4]: 1.03 ×10⁻⁶ cm/s
SMILES: CC(C)C[C@H](NC(=O)[C@@H](O)[C@H](N)Cc1ccccc1)C(=O)NCCOCCOCCOc1ccc2nc(/N=N/c3ccc(N(C)C)cc3)sc2c1

- Papp B→A at 10 µM [3]: 4.71 ×10⁻⁶ cm/s
- Kp at 4 h [13]: 4.89
SMILES: CN(C)c1ccc(/N=N/c2nc3ccc(OCCOCCOC45CC6CC(CC(C6)C4)C5)cc3s2)cc1

SMILES: CN(C)c1ccc(/N=N/c2nc3ccc(OCCOCCOCCOCCOC(c4ccccc4)c4ccccc4)cc3s2)cc1
- Activity (HeLa [11]): Active

SMILES: CN(C)c1ccc(/N=N/c2nc3ccc(O)cc3s2)cc1
- Activity (HeLa [12]): inactive

SMILES: CN(C)c1ccc(/N=N/c2nc3ccc(OCCOCCOCCOCCOc4cccc5ccccc45)cc3s2)cc1
- Activity (HeLa [11]): Active

- efflux ratio at 10 µM [2]: 0.235
- Papp B→A at 10 µM [3]: 1.25 ×10⁻⁶ cm/s
- Papp A→B at 10 µM [4]: 5.32 ×10⁻⁶ cm/s
- Kp at 4 h [13]: 0.13
SMILES: CN(C)c1ccc(/N=N/c2nc3ccc(OCCOCCOCCOCCOC45CC6CC7C8CC(CC74)CC5C8C6)cc3s2)cc1
- Activity (HeLa [5]): 60%
